Assay results published in patent US20060116407A1, “Amide derivatives” (priority 2004, published 2006).

system: HEK293 cells; experiment: Viability assay of HEK293 cells (CellTiter-Glo); assay type: cell-based; settings: Homo sapiens, 168 h, 7 days, 3 μM to 0.00015 μM, luminescence
Experimental: Viability Assay of HEK293 Cells
A viability assay was performed using the CellTiter-Glo™ Luminescent Cell Viability Assay (see Promega Corporation's Technical Publication No. 288, pp. 1-11 [revised 2.04] which is hereby incorporated by reference in its entirety). This assay is a homogeneous method of determining the number of viable cells in culture based on quantitation of the ATP present, which signals the presence of metabolically active cells. The assay is designed for use with multiwell formats, making it ideal for automated high-throughput screening (HTS), cell proliferation and cytotoxicity assays. The homogeneous assay procedure involves adding a single reagent (containing luciferase, luciferan substrate, and buffer) directly to cells cultured in serum-supplemented medium. Cell washing, removal of medium and multiple pipetting steps are not required. The system detects as few as 15 cells/well in a 384-well format in 10 minutes after adding reagent and mixing.
The homogeneous “add-mix-measure” format results in cell lysis and generation of a luminescent signal proportional to the amount of ATP present. The amount of ATP is directly proportional to the number of cells present in culture. The above-referenced assay generates a “glow-type” luminescent signal, produced by the luciferase reaction, which has a half-life generally greater than five hours, depending on cell type and medium used. The extended half-life eliminates the need to use reagent injectors and provides flexibility for continuous or batch mode processing of multiple plates. The unique homogeneous format avoids errors that may be introduced by other ATP measurement methods that require multiple steps.
HEK293 cells (human embryonic kidney cell line transformed by Adenovirus 5 fragments, ATCC-No. CRL 1573) were cultivated in Dulbecco's Modified Eagle Medium (DMEM) (1×) liquid (high glucose) (which includes L-Alanyl-L-Glutamine [a stabilized a form of L-Glutamine], 4500 mg/L glucose, and 110 mg/L sodium pyruvate) from Invitrogen Corporation (Invitrogen Catalog Number 31966-021 [now 10569-010] which is hereby incorporated by reference in its entirety), 5% Fetal Calf Serum (FCS, Sigma Cat-No. F4135 (FBS) which is hereby incorporated by reference in its entirety), and 100 Units/ml penicillin/100 μg/ml streptomycin(=Pen/Strep from Invitrogen Cat. No. 15140 which is hereby incorporated by reference in its entirety). For the assay the cells were seeded in 384 well plates, 5000 cells per well, in the same medium. The next day the test compounds were added in various concentrations ranging from 3 μM to 0.00015 μM (10 concentrations, 1:3 diluted). After 7 days the above viability assay was performed in accordance with the following steps: • Step 1: The cell-plate was equilibrated to room temperature for approximately 30 minutes and than the assay reagent was added. • Step 2: The contents were carefully mixed for 15 minutes to induce cell lysis. • Step 3: After 45 minutes the luminescent signal was measured in Victor 2, (scanning multiwell spectrophotometer, Wallac). Details: 1st Day: • Medium: Dulbecco's Modified Eagle Medium (DMEM) (1×) liquid (high glucose) (which includes L-Alanyl-L-Glutamine [a stabilized a form/source of L-Glutamine], 4500 mg/L glucose, and 110 mg/L sodium pyruvate) from Invitrogen Corporation (Invitrogen Catalog Number 31966-021 [now 10569-010]), 5% Fetal Calf Serum (FCS, Sigma Cat-No. F4135 (FBS)), and Pen/Strep (Invitrogen Cat. No. 15140). • HEK293 (ATCC-No. CRL 1573): 5000 cells in 60 μl per well of 384 well plate. (Greiner 781098, white plates) • Incubate 24 h at 37° C., 5% CO2 2nd Day: Induction (Substance Testing):
In general the dilution steeps are 1:3 a) Add 8 μl of 10 mM stock solution of compound to 72 μl DMSO b) dilute 9×1:3 (always 30 μl to 60 μl DMSO) in this DMSO dilution row (results in 10 wells with concentrations from 1000 μM to 0.06 μM) c) dilute each concentration 1: 4.8 (10 μl compound dilution to 38 μl medium) […]

| Compound | IC50 |
| --- | --- |
| O=C(Nc1ccc(C(F)(F)F)cc1[N+](=O)[O-])c1coc(COc2ccc(CCCCn3ccnn3)cc2)n1 [Example 4, 2-[4-(4-[1,2,3]Triazol-1-yl-butyl)-phenoxymethyl]-oxazole-4-carboxylic acid (2-nitro-4-trifluoromethyl-phenyl)-amide] | 127 nM |
| O=C(Nc1cc(F)cc(F)c1)c1coc(COc2ccc(CCCCn3ccnn3)cc2)n1 [Example 5, 2-[4-(4-[1,2,3]Triazol-1-yl-butyl)-phenoxymethyl]-oxazole-4-carboxylic acid (3,5-difluoro-phenyl)-amide] | 5 to 500 nM |
| O=C(Nc1ccc(Cl)cc1)c1coc(COc2ccc(CCCCn3ccnn3)cc2)n1 [Example 6, 2-[4-(4-[1,2,3]Triazol-1-yl-butyl)-phenoxymethyl]-oxazole-4-carboxylic acid (4-chloro-phenyl)-amide] | 500 to 3000 nM |
| O=C(Nc1ccc(SC(F)F)cc1)c1coc(COc2ccc(CCCCn3ccnn3)cc2)n1 [Example 8, 2-[4-(4-[1,2,3]Triazol-1-yl-butyl)-phenoxymethyl]-oxazole-4-carboxylic acid (4-difluoromethylsulfanyl-phenyl)-amide] | 5 to 500 nM |
| O=C(Nc1ccc(F)c(Cl)c1)c1coc(COc2ccc(CCCCn3ccnn3)cc2)n1 [Example 12, 2-[4-(4-[1,2,3]Triazol-1-yl-butyl)-phenoxymethyl]-oxazole-4-carboxylic acid (3-chloro-4-fluoro-phenyl)-amide] | 5 to 500 nM |
| Cc1c(F)cccc1NC(=O)c1coc(COc2ccc(CCCCn3ccnn3)cc2)n1 [Example 20, 2-[4-(4-[1,2,3]Triazol-1-yl-butyl)-phenoxymethyl]-oxazole-4-carboxylic acid (3-fluoro-2-methyl-phenyl)-amide] | 500 to 3000 nM |
| O=C(Nc1ccc(F)c([N+](=O)[O-])c1)c1coc(COc2ccc(CCCCn3ccnn3)cc2)n1 [Example 21, 2-[4-(4-[1,2,3]Triazol-1-yl-butyl)-phenoxymethyl]-oxazole-4-carboxylic acid (4-fluoro-3-nitro-phenyl)-amide] | 5 to 500 nM |
| CSc1ccc(NC(=O)c2coc(COc3ccc(CCCCn4ccnn4)cc3)n2)cc1 [Example 24, 2-[4-(4-[1,2,3]Triazol-1-yl-butyl)-phenoxymethyl]-oxazole-4-carboxylic acid (4-methylsulfanyl-phenyl)-amide] | 1060 nM |
| Cc1cc(F)ccc1NC(=O)c1coc(COc2ccc(CCCCn3ccnn3)cc2)n1 [Example 25, 2-[4-(4-[1,2,3]Triazol-1-yl-butyl)-phenoxymethyl]-oxazole-4-carboxylic acid (4-fluoro-2-methyl-phenyl)-amide] | 5 to 500 nM |
| O=C(Nc1ccc(Cl)c(C(F)(F)F)c1)c1coc(COc2ccc(CCCCn3ccnn3)cc2)n1 [Example 27, 2-[4-(4-[1,2,3]Triazol-1-yl-butyl)-phenoxymethyl]-oxazole-4-carboxylic acid (4-chloro-3-trifluoromethyl-phenyl)-amide] | 5 to 500 nM |
| Cc1ccc(NC(=O)c2coc(COc3ccc(CCCCn4ccnn4)cc3)n2)cc1 [Example 28, 2-[4-(4-[1,2,3]Triazol-1-yl-butyl)-phenoxymethyl]-oxazole-4-carboxylic acid p-tolylamide] | 500 to 3000 nM |
| CN(C(=O)c1coc(COc2ccc(CCCCn3ccnn3)cc2)n1)c1ccccc1 [Example 29, 2-[4-(4-[1,2,3]Triazol-1-yl-butyl)-phenoxymethyl]-oxazole-4-carboxylic acid methyl-phenyl-amide] | 500 to 3000 nM |
| CN(C(=O)c1coc(COc2ccc(CCCCn3ccnn3)cc2)n1)c1ccc(OC(F)(F)F)cc1 [Example 30, 2-[4-(4-[1,2,3]Triazol-1-yl-butyl)-phenoxymethyl]-oxazole-4-carboxylic acid methyl-(4-trifluoromethoxy-phenyl)-amide] | 5 to 500 nM |
| O=C(Nc1ccccc1F)c1coc(COc2ccc(CCCCn3ccnn3)cc2)n1 [Example 33, 2-[4-(4-[1,2,3]Triazol-1-yl-butyl)-phenoxymethyl]-oxazole-4-carboxylic acid (2-fluoro-phenyl)-amide] | 5 to 500 nM |
| O=C(Nc1ccc(Cl)cc1)c1csc(COc2ccc(CCCCn3ccnn3)cc2)n1 [Example 42, 2-[4-(4-[1,2,3]Triazol-1-yl-butyl)-phenoxymethyl]-thiazole-4-carboxylic acid (4-chloro-phenyl)-amide] | 5 to 500 nM |
| O=C(Nc1c(Cl)cccc1Cl)c1coc(COc2ccc(CCCCn3ccnn3)cc2)n1 [Example 44, 2-[4-(4-[1,2,3]Triazol-1-yl-butyl)-phenoxymethyl]-oxazole-4-carboxylic acid (2,6-dichloro-phenyl)-amide] | 5 to 500 nM |
| Cc1cc(OCc2nc(C(=O)Nc3ccc(C(F)(F)F)cc3)co2)ccc1CCCCn1ccnn1 [Example 46, 2-[3-Methyl-4-(4-[1,2,3]triazol-1-yl-butyl)-phenoxymethyl]-oxazole-4-carboxylic acid (4-trifluoromethyl-phenyl)-amide] | 5 to 500 nM |
| Cc1cc(OCc2nc(C(=O)Nc3cccc(Cl)c3)co2)ccc1CCCCn1ccnn1 [Example 48, 2-[3-Methyl-4-(4-[1,2,3]triazol-1-yl-butyl)-phenoxymethyl]-oxazole-4-carboxylic acid (3-chloro-phenyl)-amide] | 5 to 500 nM |
| Cc1cc(OCc2nc(C(=O)Nc3cccc(Cl)c3)cs2)ccc1CCCCn1ccnn1 [Example 51, 2-[3-Methyl-4-(4-[1,2,3]triazol-1-yl-butyl)-phenoxymethyl]-thiazole-4-carboxylic acid (3-chloro-phenyl)-amide] | 5 to 500 nM |
| O=C(Nc1nc(COc2ccc(CCCCn3ccnn3)cc2)cs1)c1ccc([N+](=O)[O-])cc1 [Example 52-1, 4-Nitro-N-{4-[4-(4-[1,2,3]triazol-1-yl-butyl)-phenoxymethyl]-thiazol-2-yl}-benzamide] | 5 to 500 nM |
| O=C(Nc1nc(COc2ccc(CCCCn3ccnn3)cc2)cs1)c1cccc(C(F)(F)F)c1 [Example 52-2, N-{4-[4-(4-[1,2,3]Triazol-1-yl-butyl)-phenoxymethyl]-thiazol-2-yl}-3-trifluoromethyl-benzamide] | 500 to 3000 nM |
| O=C(Nc1nc(COc2ccc(CCCCn3ccnn3)cc2)cs1)c1ccc(OC(F)(F)F)cc1 [Example 52-4, N-{4-[4-(4-[1,2,3]Triazol-1-yl-butyl)-phenoxymethyl]-thiazol-2-yl}-4-trifluoromethoxy-benzamide] | 5 to 500 nM |
| O=C(Nc1nc(COc2ccc(CCCCn3ccnn3)cc2)cs1)c1ccc(Cl)c(F)c1 [Example 52-6, 4-Chloro-3-fluoro-N-{4-[4-(4-[1,2,3]triazol-1-yl-butyl)-phenoxymethyl]-thiazol-2-yl}-benzamide] | 5 to 500 nM |
| O=C(Nc1nc(COc2ccc(CCCCn3ccnn3)cc2)cs1)c1ccc(SC(F)(F)F)cc1 [Example 52-7, N-{4-[4-(4-[1,2,3]Triazol-1-yl-butyl)-phenoxymethyl]-thiazol-2-yl}-4-trifluoromethylsulfanyl-benzamide] | 5 to 500 nM |
| O=C(Nc1nc(COc2ccc(CCCCn3ccnn3)cc2)cs1)c1ccc(Cl)c(Cl)c1 [Example 52-9, 3,4-Dichloro-N-{4-[4-(4-[1,2,3]triazol-1-yl-butyl)-phenoxymethyl]-thiazol-2-yl}-benzamide] | 5 to 500 nM |
| O=C(Nc1nc(COc2ccc(CCCCn3ccnn3)cc2)cs1)c1cccc(Cl)c1 [Example 52-12, 3-Chloro-N-{4-[4-(4-[1,2,3]triazol-1-yl-butyl)-phenoxymethyl]-thiazol-2-yl}-benzamide] | 5 to 500 nM |
